The text below walks through data of PubChem BioAssay (NCI).

What all share (assay): NCI anticancer screen, dose series, 48 h
Assay [1] relates to A549 NSCLC.
The subject of assay [2] is T-47D breast.
Assay [3] relates to A498 renal.
For assay [4], the system named is HOP-92 NSCLC.
The test system of assay [5] is OVCAR-4 ovarian.
The test system of assay [6] is HCC-2998 colon.
The test system of assay [7] is OVCAR-3 ovarian.
Assay [8] has as its system U251 CNS.
The test system of assay [9] is UO-31 renal.
Assay [10] has as its system SW-620 colon.

Structures are written as SMILES.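 Growth conditions: 96-well plates. Treatment: test compound, 48 hours, 5 concentrations. Analysis: linear interpolation between bracketing concentrations; unreached endpoints set to highest concentration. Here, GI50 denotes the concentration required for 50% inhibition of growth. TGI: concentration producing complete growth inhibition.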 Bounds are passed on as bounds.

Consider `C=C1C(=O)O[C@H]2[C@H]1CC/C(COC(=O)CCCCCC(=O)OC/C1=C/CC[C@@]3(C)O[C@H]3[C@H]3OC(=O)C(=C)[C@@H]3CC1)=C\CC[C@@]1(C)O[C@@H]21`, for which the GI50 in assay [1] was 10.4 µM; in assay [2] it was 1.96 µM; in [3], 11.4 µM; in assay [4] it was 1.7 µM; in assay [5], 2.92 µM; in assay [6], 1.95 µM. Besides, the GI50 in assay [7] is 1.11 µM; in assay [8], 2.64 µM; in [9], 1.25 µM; in assay [10], 1.35 µM. For the same compound, the TGI in assay [1] amounted to 23.8 µM; in [2], 5.74 µM; in assay [3] it was 27.4 µM; in assay [4], 4.12 µM; in assay [5] it was 15.3 µM; in assay [6], 3.98 µM. The TGI in assay [7] came out at 2.38 µM; in [8], 9.61 µM; in [9], 2.86 µM; in assay [10] it was 3.14 µM.
With `CCCCC(SC(=S)N1CCCC1)C(=O)Nc1nc(CC(=O)OCC)cs1` (stereo not given), the GI50 was 31.7 µM in assay [1]; 30.5 µM in [2]; 64.6 µM in [3]; 36.6 µM in [4]; 43.4 µM in assay [5]; 99.5 µM in assay [6]. In addition, the GI50 was 9.52 µM in assay [7], 53.8 µM in [8], 36.9 µM in [9] and 68.6 µM in assay [10]. Further, the TGI in [1], in assay [2], in [3], in assay [4], in assay [5] and in assay [6] was > 100 µM each time. Moreover, the TGI in assay [7], in assay [8], in assay [9] and in [10] was > 100 µM each time.
As to `CCCCCCCCCCCC1=NC(C)(C)CN1C(C)(C)CO`, the GI50 in assay [1] is 6.53 µM; in assay [2], 2.05 µM; in [3], 5.76 µM; in assay [4], 2.31 µM; in [5] it was 4.61 µM; in assay [6], 1.75 µM. Further, the GI50 in assay [7] is 2.05 µM; in [8] it was 1.9 µM; in assay [9], 2.03 µM; in [10] it was 1.67 µM. Further, the TGI was determined as 19.6 µM in assay [1]; 5.31 µM in assay [2]; 20.8 µM in [3]; 7.49 µM in assay [4]; 15.8 µM in assay [5]; 3.24 µM in assay [6]. Further, the TGI was determined as 6.2 µM in assay [7], 4.77 µM in [8], 8.42 µM in assay [9] and 3.08 µM in assay [10].
With `CN1C(=O)c2ccc3ccccc3c2C1=O`, the TGI in [1], in [2], in assay [3], in assay [4], in assay [5] and in [6] was > 100 µM throughout. For the same compound, the TGI in [7], in [8], in assay [9] and in assay [10] was > 100 µM each time.
Take `C/C(=C\c1ccn(-c2ccccc2N)n1)[C@@H]1C[C@@H]2O[C@]2(C)CCC[C@H](C)[C@H](O)[C@@H](C)C(=O)C(C)(C)[C@@H](O)CC(=O)O1`: the GI50 in assay [1] was 0.0372 µM; in [2], 0.0692 µM; in assay [3], 0.0372 µM; in assay [4], 0.146 µM; in assay [5], 0.392 µM; in [6], 0.0467 µM. Besides, the GI50 in assay [7] is 0.0177 µM; in assay [8] it was 0.0348 µM; in assay [9], 0.302 µM; in assay [10], 0.0245 µM. In addition, the TGI in [1] is > 50 µM; in [2], > 50 µM; in assay [3] it was 0.669 µM; in assay [4] it was > 50 µM; in [5], > 50 µM; in [6] it was > 18.3 µM. In addition, the TGI is 0.457 µM in assay [7], > 33.6 µM in [8], > 50 µM in assay [9] and > 50 µM in [10].
As to `COc1ccc(/C=C(/c2ccccc2)[N+](=O)[O-])c(OC)c1`, the GI50 in [1] was 2.32 µM; in assay [2], 0.668 µM; in assay [3] it was 1.55 µM; in [4], 1.26 µM; in assay [5], 1.55 µM; in [6], 1.92 µM. In addition, the GI50 was 1.69 µM in assay [7], 1.48 µM in assay [8], 1.23 µM in assay [9] and 1.73 µM in [10]. The TGI is 6.66 µM in assay [1]; 4.21 µM in assay [2]; 2.99 µM in assay [3]; 2.76 µM in assay [4]; 2.92 µM in assay [5]; 3.4 µM in assay [6]. Besides, the TGI worked out at 3.09 µM in assay [7], 3.15 µM in assay [8], 2.47 µM in [9] and 4.08 µM in assay [10].
In the case of `Oc1c(C(Nc2ccccc2Br)c2ccccc2)ccc2cccnc12` (stereo not given), the GI50 in assay [1] was 2.46 µM; in [2], 3.77 µM; in assay [3], 2.04 µM; in assay [4], 6.51 µM; in assay [5], 1.3 µM; in assay [6], 2.19 µM. Moreover, the GI50 is 5.37 µM in assay [7], 0.674 µM in assay [8], 1.32 µM in assay [9] and 2.63 µM in assay [10]. Besides, the TGI in assay [1] was > 100 µM; in assay [2] it was 73.1 µM; in assay [3] it was 25.6 µM; in assay [4] it was 75.9 µM; in assay [5], 55 µM; in [6], 97.9 µM. The TGI in assay [7] was found to be 23.9 µM; in assay [8], 13.4 µM; in [9], 45.8 µM; in assay [10] it was 25.3 µM.
Regarding `COc1ccccc1/C=C1\COc2ccc(-c3ccccc3)cc2C1=O`, the GI50 is 2.61 µM in [1]; 2.83 µM in assay [2]; 2.53 µM in assay [3]; 4.18 µM in [4]; 3.74 µM in assay [5]; 2.63 µM in assay [6]. Moreover, the GI50 was 2.58 µM in assay [7], 2.12 µM in [8], 8.93 µM in assay [9] and 2.39 µM in [10]. In addition, the TGI in [1] was 8.9 µM; in assay [2] it was > 100 µM; in assay [3], 6.43 µM; in assay [4] it was > 100 µM; in assay [5], > 100 µM; in assay [6], 6.92 µM. The TGI in assay [7] worked out at 5.48 µM; in [8], 6.24 µM; in assay [9], 37.3 µM; in assay [10], 5.6 µM.
Regarding `O=C1CCc2c(sc3[nH]c(=S)n(-c4cc(C(F)(F)F)cc(C(F)(F)F)c4)c(=O)c23)C1`, the GI50 in [1] was 0.707 µM; in assay [2], 0.385 µM; in assay [3], 2.15 µM; in assay [4] it was 0.205 µM; in [5], 0.359 µM; in assay [6], 0.509 µM. Moreover, the GI50 in assay [7] is 0.358 µM; in assay [8] it was 0.364 µM; in [9], 0.292 µM; in assay [10], 0.376 µM. Also, the TGI was determined as 11.3 µM in [1]; 2.46 µM in assay [2]; 7.44 µM in assay [3]; 0.692 µM in [4]; 1.72 µM in [5]; 1.91 µM in [6]. Further, the TGI in [7] was 1.49 µM; in assay [8], 1.97 µM; in assay [9], 1.11 µM; in assay [10] it was 15.7 µM.
In the case of `COC(=O)c1cc(-c2ccccc2)[nH]c1N/N=C/c1c(Cl)cccc1Cl`, the GI50 was 0.501 µM in assay [1]; 0.418 µM in [2]; 0.198 µM in [3]; 0.609 µM in [4]; 0.729 µM in [5]; 0.363 µM in assay [6]. Besides, the GI50 is 0.17 µM in assay [7], 0.332 µM in [8], 0.609 µM in assay [9] and 0.279 µM in assay [10]. The TGI was > 44.1 µM in assay [1]; 7.36 µM in assay [2]; 0.704 µM in assay [3]; 17.5 µM in assay [4]; > 28.6 µM in assay [5]; 23.4 µM in assay [6]. For the same compound, the TGI was 0.356 µM in assay [7], 3.58 µM in [8], > 56.3 µM in [9] and > 38.8 µM in [10].
Turning to `Cc1cn2c(/C=C3/C(=O)Nc4c3ccc3ccccc43)c(C(F)(F)F)nc2s1`, the GI50 in [1] was 1.18 µM; in assay [2], 2.88 µM; in [3] it was 1.7 µM; in assay [4] it was 5.1 µM; in [5], 3.63 µM; in assay [6], 3.23 µM. Further, the GI50 in assay [7] was 0.381 µM; in assay [8] it was 2.12 µM; in [9], 1.97 µM; in [10], 0.965 µM. In addition, the TGI in assay [1] was > 100 µM; in assay [2] it was > 100 µM; in assay [3], > 100 µM; in assay [4], 98.7 µM; in assay [5] it was > 100 µM; in [6], > 100 µM. Further, the TGI is 10.2 µM in assay [7], > 100 µM in assay [8], > 100 µM in assay [9] and > 100 µM in [10].
